This is an account of results in patent publication US10378059B2, “Methods and molecular pharmacodynamic biomarkers for multiple signaling pathways in response to carboxyamidotriazole orotate” (TACTICAL THERAPEUTICS, INC., priority 2013, dated 2019).

For one data set, the system named is PI3K pathway. Description: Plucked hair assay, PI3K Signature Score. In kind it is cell-based, human. The note with it: CTO 8 hr and 24 hr; BEZ235 1 μM 24 hr. How it is done: (§1) Donor hairs were plucked from 5 male donor volunteers, immediately transferred to maintenance medium cultures and exposed to varying doses of CTO equivalent to […], 5 μM, and 10 μM carboxyamidotriazole (CAI). The cultures were either maintained for 8 hrs or 24 hrs. Controls were used, for example, Tarceva®. (EGFR inhibitor) at 1 μM and BEZ235 (PI3K inhibitor) at 1 μM for 24 hrs only. Once in culture hairs were collected at the specified periods for mRNA isolation or protein analysis to ensure quality control. Small amounts of RNA (about up to 500 ng) are extracted from the bulbs at the end of the anagen hairs. Representative cDNA was prepared from the RNA and gene expression levels determined by microarray analysis. Biotin labeling, fragmentation and hybridization to 048 Affymetrix U133 plus 2.0 array was done. […]

Another data set relates to PI3K/mTOR pathway. The data set is described as follows: Plucked hair assay, PI3K/mTOR Signature Score. In kind it is cell-based, human. The note with it: CTO 8 hr and 24 hr; BEZ235 1 μM 24 hr. Here is the method:
as §1

For data set [1], the system named is early growth response 1 gene product (EGR1). The data set is described as follows: Plucked hair assay, EGR1 expression. It is filed as cell-based, human. Conditions: for EGR1 regulation: BEZ235 and Tarceva 1 μM, 24 hr.
Experimental: Donor hairs were plucked from 5 male donor volunteers, immediately transferred to maintenance medium cultures and exposed to varying doses of CTO equivalent to 2 M, 5 μM, and 10 μM carboxyamidotriazole (CAI). The cultures were either maintained for 8 hrs or 24 hrs. Controls were used, for example, Tarceva®. (EGFR inhibitor) at 1 μM and BEZ235 (PI3K inhibitor) at 1 μM for 24 hrs only. Once in culture hairs were collected at the specified periods for mRNA isolation or protein analysis to ensure quality control. Small amounts of RNA (about up to 500 ng) are extracted from the bulbs at the end of the anagen hairs. Representative cDNA was prepared from the RNA and gene expression levels determined by microarray analysis. Biotin labeling, fragmentation and hybridization to 048 Affymetrix U133 plus 2.0 array was done. Bioinformatic analysis was done to identify CTO induced gene expression changes.
The next data set has as its system RAS pathway. The data set is described as follows: Plucked hair assay, RAS pathway Signature Score. In kind it is cell-based, human. The note with it: different doses of CTO, 8 hr and 24 hr; most obvious at 8 hrs. Here is the method:
as §1

The subject of data set [2] is Growth Factor Signature (GFS) pathway. Description: Plucked hair assay, Growth Factor Signature Score. It is filed as cell-based, human. Conditions: different doses of CTO, 8 hr and 24 hr; most obvious at 8 hrs. How it is done: as §1
The next data set has as its system MEK pathway. Description: Plucked hair assay, MEK Signature Score. Conditions: all CTO treatments at 8 hrs and 24 hrs. In kind it is cell-based, human. Here is the method: as §1
The test system of another data set is HDAC pathway. The data set is described as follows: Plucked hair assay, HDAC Signature Score. It is filed as cell-based, human. Conditions: different doses of CTO, 8 hr and 24 hr. How it is done: as §1
Another data set has as its system NOTCH pathway. Description: Plucked hair assay, NOTCH Signature Score. It is filed as cell-based, human. The note with it: different doses of CTO, 8 hr and 24 hr. Here is the method: as §1
In a further data set the test system is WNT β-catenin pathway. Description: Plucked hair assay, WNT β-catenin Signature Score. It is filed as cell-based, human. The note with it: 24 hrs exposure to CTO. Here is the method:
as §1

The test system of the next data set is HSP90 pathway. The data set is described as follows: Plucked hair assay, HSP90 Signature Score. The note with it: different doses of CTO, 8 hr and 24 hr; dose dependent. In kind it is cell-based, human. Here is the method: as §1
A further data set relates to EGFR pathway. The data set is described as follows: Plucked hair assay, EGFR Signature Score. In kind it is cell-based, human. The note with it: all doses of CTO and time points; Tarceva 1 μM 24 hr. How it is done: as §1
For the next data set, the system named is P53 pathway. Description: Plucked hair assay, P53 Signature Score. In kind it is cell-based, human. The note with it: all doses of CTO, 8 hr and 24 hr. How it is done:
as §1

The test system of a further data set is CAI IPA pathway. The data set is described as follows: Plucked hair assay, CAI IPA Signature Score. Conditions: different doses of CTO, 8 hr and 24 hr; except at 10 μM. In kind it is cell-based, human. Here is the method: as §1, with “done. Bioinformatic analysis was done to identify CTO induced gene expression changes.” for “done.”
A further data set has as its system CAI Ex vivo pathway. The data set is described as follows: Plucked hair assay, CAI Ex vivo Signature Score. In kind it is cell-based, human. The note with it: different doses of CTO, 8 hr and 24 hr; tissue specific direction of change. How it is done: as §1, with “done. Bioinformatic analysis was done to identify CTO induced gene expression changes.” for “done.”

Data set [3] concerns non-voltage dependent calcium signaling genes. Description: Plucked hair assay, non-voltage dependent calcium signaling Signature Score. It is filed as cell-based, human. Conditions: across CTO treatment; literature determined regulation and ANOVA determined set. Here is the method:
as §1, with “done. Bioinformatic analysis was done to identify CTO induced gene expression changes.” for “done.”

Data set [4] has as its system Canonical Calcium signaling. The data set is described as follows: Plucked hair assay, Canonical Calcium signaling Signature Score (KEGG and IPA). It is filed as cell-based, human. The note with it: KEGG Calcium Signaling Pathway and IPA predicted regulation. Here is the method: Canonical calcium signaling was analyzed using the KEGG Calcium Signaling Pathway and IPA to predict regulation of canonical calcium signaling. […] Using ANOVA to filter for informative genes (FDR<0.05 & 1.5) it was noted that suppression of canonical calcium genes occurred across CTO treatment, however this only represented 7/68 canonical pathway genes.
as §1, with “done. Bioinformatic analysis was done to identify CTO induced gene expression changes.” for “done.”

The subject of data set [5] is carcinoembryonic antigen-related cell adhesion molecule (CEACAM1). Description: Plucked hair assay, CEACAM1 expression. It is filed as cell-based, human. How it is done: (§2) Donor hairs were plucked from 5 male donor volunteers, immediately transferred to maintenance medium cultures and exposed to varying doses of CTO equivalent to […], 5 μM, and 10 μM carboxyamidotriazole (CAI). The cultures were either maintained for 8 hrs or 24 hrs. Controls were used, for example, Tarceva®. (EGFR inhibitor) at 1 μM and BEZ235 (PI3K inhibitor) at 1 μM for 24 hrs only. Once in culture hairs were collected at the specified periods for mRNA isolation or protein analysis to ensure quality control. Small amounts of RNA (about up to 500 ng) are extracted from the bulbs at the end of the anagen hairs. Representative cDNA was prepared from the RNA and gene expression levels determined by microarray analysis. Biotin labeling, fragmentation and hybridization to 048 Affymetrix U133 plus 2.0 array was done. Bioinformatic analysis was done to identify CTO induced gene expression changes.

A further data set relates to Dystonin. The data set is described as follows: Plucked hair assay, Dystonin expression. In kind it is cell-based, human. Here is the method: as §2
The subject of the next data set is TGF-β signaling. Description: Plucked hair assay, TGF-β signaling. In kind it is cell-based, human. How it is done:
as §2

Data set [6] concerns cancer patients with different tumor types. In kind it is in vivo. The note with it: CTO given alone. An excerpt: Thus enormous efforts are directed to the development of molecular pharmacodynamics biomarkers of signaling outputs of CTO to design combinatorial regimens against molecular targets in different types of cancers. Current methods for assessing pathway activation in tumors involve the measurement of the drug targets, known oncogenes or known tumor suppressors. However, one pathway can be activated at multiple points so it is not feasible to assess pathway activation by evaluating just known cancer associated genes.

The subject of data set [7] is ex vivo cultured human anagen hairs. The data set is described as follows: Plucked hair biomarker platform: global transcriptional response by microarray (probe list, Table 1). The note with it: for transcriptional response (differential probes): CTO equivalent to 2, 5, 10 μM CAI, 8 hr and 24 hr, BEZ235 and Tarceva 1 μM, 24 hr.

Entries after “also recorded” stand apart in the source; their conditions may differ.

As for `Cn1c(=O)n(-c2ccc(C(C)(C)C#N)cc2)c2c3cc(-c4cnc5ccccc5c4)ccc3ncc21` [BEZ235, reference compound], the PI3K signature result in the data set on PI3K pathway is listed as “Strong suppression”. Also, in the data set on PI3K/mTOR pathway, the PI3K/mTOR signature entry is recorded as “Strong suppression”. Besides, the EGR1 regulation entry in [1] is listed as “suppressed”.
As for `NC(=O)c1nnn(Cc2cc(Cl)c(C(=O)c3ccc(Cl)cc3)c(Cl)c2)c1N.O=C(O)c1cc(=O)[nH]c(=O)[nH]1` [CTO, carboxyamidotriazole orotate], the RAS signature entry in the data set with RAS pathway is “modest down regulation”. Further, the “Growth Factor signature (GFS)” value in data set [2] is recorded as “modest down regulation”. Further, the MEKi signature entry in the data set with MEK pathway is recorded as “strongly suppressed; also recorded: strong inhibition”. The HDAC signature result in the data set on HDAC pathway is reported as “strongly suppressed; also recorded: weak suppression”. Besides, the Notch signature result in the data set with NOTCH pathway was “no suppression; also recorded: no activity”. The “WNT β-catenin signature” value in the data set on WNT β-catenin pathway is listed as “modes suppression; also recorded: inhibitory at 24 hr”. Also, the HSP90 signature entry with HSP90 pathway is reported as “strong suppression”. Also, the EGFR signature result in the data set with EGFR pathway is “strongly suppressed; also recorded: very strong suppression; also recorded: stronger than that in Tarceva® at all doses of CTO and time points”. Also, in the data set on P53 pathway, the P53 signature result is “stabilized; also recorded: induction; also recorded: induced”. Further, in the data set with CAI IPA pathway, the “CAI signature (IPA, 29 genes)” value is recorded as “some suppression”. Also, the “IPA CAI list, ex vivo 14 gene set” value in the data set on CAI Ex vivo pathway is recorded as “strong dose dependent suppression”. For the same molecule, the “non-voltage dependent calcium genes signature” value in data set [3] is on record as “strongly suppressed; also recorded: strong suppression”. In addition, the “canonical calcium signaling pathway signature” value in data set [4] was “No significant suppression”. Moreover, in data set [1] (varying doses of CTO at 8 hr and 24 hrs), the EGR1 up regulation is given as 6 fold. Moreover, in data set [5], the CEACAM1 regulation entry is on record as “down regulated”. This molecule yielded a Dystonin down regulation in the data set with Dystonin of 60 fold. For the same molecule, the TGF-β signaling result with TGF-β signaling was “inhibited”. Moreover, in data set [6] (cancer patients with different genomic mutations), the tumor response entry was “stable disease or partial response showing tumor shrinkage”. Also, the safety and tolerability entry in data set [6] (cancer patients, maximum tolerated dose not determined) is “safe and tolerable”. For the same molecule, the “net result probes overlapping between the 8 hr and 24 hr lists” value in [7] (442 unique annotated genes) is 558. Besides, the results for the probes observed in data set [7] (8 hours) and in [7] (24 hrs) were 1440 and 2961, respectively. In addition, the “transcriptional response (differential probes)” value in data set [7] is recorded as “differential probes increased in a dose related manner; also recorded: greatest effect transcriptionally”. For the same molecule, in data set [7] (high dose CTO/24 hr), the “fold range of the overlapping probes” value is reported as −75 to +33 fold.
As for `C#Cc1cccc(Nc2ncnc3cc(OCCOC)c(OCCOC)cc23)c1` [Tarceva®, erlotinib, reference compound], the EGR1 regulation result in [1] is reported as “suppressed”. In data set [5], the CEACAM1 regulation result is “down regulated”. For the same molecule, the “transcriptional response (differential probes)” value in data set [7] is given as “less differential probes than CTO or BEZ235”.
